{
  "source": "patent US20030017965A1",
  "about": "“Methods for treating certain diseases using naaladase inhibitors” (priority 1998, published 2003)",
  "key": {"[1]": {"test_system": "middle cerebral artery occlusion (MCAO) in rats", "assay": "Neuroprotection following middle cerebral artery occlusion (MCAO) in rats", "type": "in vivo", "text": "The effect of TGF-β neutralizing antibodies on the neuroprotection afforded by 2-(phosphonomethyl)-pentanedioic acid following middle cerebral artery occlusion (MCAO) in rats was also studied to give a more relevant in vivo model of stroke.\nThus, it was appreciated that the regulation of TGF-βs may have implications, not only in its utility in stroke, but also in other neurological and psychiatric diseases. In addition, this mechanism may have implications in myelination, prostate cancer, inflammation, diabetes, and angiogenesis."}, "mice": {"test_system": "mice", "assay": "In vivo toxicity study in mice", "details": "for Survival Rate After 5 days (%): injected", "text": "The in vivo toxicological effect of NAALADase inhibition has been examined in mice. […] Representative disclosure may be found in U.S. Pat. Nos. 5,672,592, 5,795,877, 5,863,536 and 5,880,112, and allowed U.S. patent applications Ser. Nos. 08/825,997, 08/833,628, 08/835,572 and 08/842,360, for which the issue fees have been paid, the entire contents of which patents and applications are herein incorporated by reference.\nThe mice were observed two times per day for 5 consecutive days."}, "TGF-β1 [2]": {"test_system": "TGF-β1", "assay": "TGF-β1 concentration in ischemic cell cultures", "type": "cell-based", "details": "added to ischemic cultures (20-minute ischemia)", "text": "(§1) The compounds of the invention were used to produce a neuroprotective effect in both in vitro and in vivo cell culture models of stroke."}, "ischemic cultures": {"test_system": "ischemic cultures", "assay": "Neuroprotection in ischemic cell culture model of stroke with neutralizing antibodies", "type": "cell-based", "details": "for neuroprotective effect in presence of FGF antibody: FGF neutralizing antibody added; for neuroprotective effect in presence of TGF-β neutralizing antibodies: TGF-β neutralizing antibodies added", "procedure": "as §1\nTGF-β neutralizing antibodies were then added to determine if the neuroprotective effect would be blocked. The neuroprotective effect of 2-(phosphonomethyl)-pentanedioic acid was blocked by TGF-βs neutralizing bodies in this cell culture model. However, when other growth factor antibodies, such as FGF antibody, were added, the neuroprotective effect of 2-(phosphonomethyl)-pentanedioic acid was not reversed in culture."}, "TGF-β2": {"test_system": "TGF-β2", "assay": "TGF-β2 concentration in ischemic cell cultures", "type": "cell-based", "details": "added to ischemic cultures (20-minute ischemia)", "text": "as §1"}, "TGF-β1 [3]": {"test_system": "TGF-β1", "assay": "TGF-β1 levels by microdialysis in MCAO rats", "type": "in vivo", "details": "FIG. 6"}, "[4]": {"biological_target": "T1, Myeloperoxidase (MPO) isolated from human polymorphonuclear leukocytes (Homo sapiens, UniProt P05164)", "T1 construct": "Myeloperoxidase (MPO) isolated from human polymorphonuclear leukocytes; purchased Calbiochem 475911; host or cells: human polymorphonuclear leukocytes (natural source)", "T1 sequence (P05164 279-745 limits assumed)": "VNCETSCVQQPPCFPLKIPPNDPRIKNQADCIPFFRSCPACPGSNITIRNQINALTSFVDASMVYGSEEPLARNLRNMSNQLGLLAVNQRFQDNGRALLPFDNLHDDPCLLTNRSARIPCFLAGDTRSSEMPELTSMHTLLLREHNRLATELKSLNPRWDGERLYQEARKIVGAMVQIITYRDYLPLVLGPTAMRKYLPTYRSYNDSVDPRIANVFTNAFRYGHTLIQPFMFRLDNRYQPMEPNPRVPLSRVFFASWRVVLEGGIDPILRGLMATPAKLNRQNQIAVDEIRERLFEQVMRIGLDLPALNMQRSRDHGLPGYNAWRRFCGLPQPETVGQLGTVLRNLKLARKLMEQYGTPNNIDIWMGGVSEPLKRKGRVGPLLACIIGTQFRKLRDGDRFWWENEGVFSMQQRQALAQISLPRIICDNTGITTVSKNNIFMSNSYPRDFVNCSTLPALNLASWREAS", "T1 sequence (P05164 165-273 limits assumed)": "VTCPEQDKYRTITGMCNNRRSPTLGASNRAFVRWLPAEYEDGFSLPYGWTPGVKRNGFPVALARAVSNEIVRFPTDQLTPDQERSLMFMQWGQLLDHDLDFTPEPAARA", "details": "guaiacol substrate, reference data; cited from earlier work"}, "[5]": {"details": "listed as 2-(phosphonomethyl)-pentanedioic acid"}},
  "data": [
    {"smiles": "O=C(O)CCC(CP(=O)(O)O)C(=O)O", "note": "(stereo not drawn) [Compound 3, 2-(phosphonomethyl)-pentanedioic acid]", "values": [
      {"measurement": "neuroprotection", "setting": "[1]; MCAO rats", "result": "provided neuroprotection"},
      {"measurement": "neuroprotective effect after TGF-β neutralizing antibodies", "setting": "[1]; MCAO rats pre-treated with TGF-β neutralizing antibodies, FIG. 5", "result": "significantly attenuated"},
      {"measurement": "Survival Rate After 5 days (%)", "setting": "mice; dose 1 mg/kg", "result": 100, "unit": "%"},
      {"measurement": "Survival Rate After 5 days (%)", "setting": "mice; dose 5 mg/kg", "result": 100, "unit": "%"},
      {"measurement": "Survival Rate After 5 days (%)", "setting": "mice; dose 10 mg/kg", "result": 100, "unit": "%"},
      {"measurement": "Survival Rate After 5 days (%)", "setting": "mice; dose 30 mg/kg", "result": 100, "unit": "%"},
      {"measurement": "Survival Rate After 5 days (%)", "setting": "mice; dose 100 mg/kg", "result": 100, "unit": "%"},
      {"measurement": "Survival Rate After 5 days (%)", "setting": "mice; dose 300 mg/kg", "result": 100, "unit": "%"},
      {"measurement": "Survival Rate After 5 days (%)", "setting": "mice; dose 500 mg/kg", "result": 66.7, "unit": "%"},
      {"measurement": "toxicological effect in vivo", "setting": "mice; observed for 5 days", "result": "non-toxic"},
      {"measurement": "level of TGF-β1", "setting": "TGF-β1 [2]", "result": "increased significantly"},
      {"measurement": "neuroprotective effect in presence of FGF antibody", "setting": "ischemic cultures; [5]", "result": "not reversed"},
      {"measurement": "neuroprotective effect in presence of FGF antibody", "setting": "ischemic cultures; listed as compound 3", "result": "non-reversal"},
      {"measurement": "neuroprotective effect in presence of TGF-β neutralizing antibodies", "setting": "ischemic cultures; [5]", "result": "blocked"},
      {"measurement": "neuroprotective effect in presence of TGF-β neutralizing antibodies", "setting": "ischemic cultures; listed as compound 3", "result": "reversal"},
      {"measurement": "level of TGF-β2", "setting": "TGF-β2", "result": "increased significantly"},
      {"measurement": "TGF-β1 during occlusion and reperfusion", "setting": "TGF-β1 [3]", "result": "significant rise"}
    ]},
    {"smiles": "CC(Cc1ccc(O)c(O)c1)C(C)Cc1ccc(O)c(O)c1", "note": "(stereo not drawn) [NDGA (Nordihydroguaretic Acid), Nordihydroguaretic Acid]", "values": [
      {"measurement": "IC50", "setting": "[4]", "result": 1, "unit": "µM"}
    ]}
  ]
}
